{"source": "paper PMC9953308", "about": "“The Mechanism of Enantioselective Neurosteroid Actions on GABAA Receptors” (Biomolecules, 2023)", "key": {"[1]": {"target": "T1, α1β3 GABAA receptor (β3 subunit; β3-α1 intersubunit site) (Homo sapiens, UniProt P14867+P28472)", "T1 construct": "gene GABRB3; human α1-8xHis-FLAG and human β3 GABAA receptor in HEK-T-Rex-293 membranes; human α1β3 in Xenopus oocytes for EC50; with GABAA receptor α1 subunit (GABRA1)", "T1 sequence (P28472 26-473)": "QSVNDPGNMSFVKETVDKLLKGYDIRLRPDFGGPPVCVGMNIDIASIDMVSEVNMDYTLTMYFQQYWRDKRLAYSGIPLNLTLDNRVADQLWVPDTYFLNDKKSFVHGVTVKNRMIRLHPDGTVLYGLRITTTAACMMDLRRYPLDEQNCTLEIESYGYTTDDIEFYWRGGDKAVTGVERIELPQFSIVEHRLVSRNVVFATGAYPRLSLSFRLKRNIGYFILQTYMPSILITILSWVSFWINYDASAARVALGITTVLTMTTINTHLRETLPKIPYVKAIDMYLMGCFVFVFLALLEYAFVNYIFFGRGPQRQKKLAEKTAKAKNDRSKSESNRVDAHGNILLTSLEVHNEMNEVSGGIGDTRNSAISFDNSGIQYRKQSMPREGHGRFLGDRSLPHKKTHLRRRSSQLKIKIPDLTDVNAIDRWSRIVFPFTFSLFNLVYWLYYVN", "T1 sequence (P14867 28-456)": "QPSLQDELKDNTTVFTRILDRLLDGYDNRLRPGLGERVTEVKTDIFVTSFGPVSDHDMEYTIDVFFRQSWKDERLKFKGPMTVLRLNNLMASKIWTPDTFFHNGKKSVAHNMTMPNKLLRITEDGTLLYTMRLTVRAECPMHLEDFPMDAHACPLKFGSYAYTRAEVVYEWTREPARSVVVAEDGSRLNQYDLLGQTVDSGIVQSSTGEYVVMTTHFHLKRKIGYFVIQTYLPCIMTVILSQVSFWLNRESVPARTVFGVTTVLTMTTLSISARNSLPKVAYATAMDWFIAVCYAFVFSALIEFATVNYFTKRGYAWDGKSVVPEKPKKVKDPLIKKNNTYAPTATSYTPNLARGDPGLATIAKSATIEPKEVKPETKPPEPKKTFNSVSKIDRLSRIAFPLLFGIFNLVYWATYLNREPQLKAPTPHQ", "assay": "competitive prevention of KK200/KK123 photolabeling with MS readout; EC50 from oocyte two-electrode voltage clamp (potentiation of GABA currents)", "type": "cell-based"}, "[2]": {"target": "T2, α1β3 GABAA receptor (α1 subunit) (Homo sapiens, UniProt P14867)", "T2 construct": "gene GABRA1; human α1-8xHis-FLAG and human β3 GABAA receptor in HEK-T-Rex-293 membranes; with GABAA receptor β3 subunit (GABRB3)", "T2 sequence (P14867 28-456)": "T1 sequence (P14867 28-456)", "T2 sequence (P28472 26-473 partner)": "T1 sequence (P28472 26-473)", "assay": "photoaffinity labeling ([…]) with middle-down MS identification of adducted residue", "type": "binding"}, "[3]": {"target": "T1, α1β3 GABAA receptor (β3 subunit; β3-α1 intersubunit site)", "assay": "competitive prevention of KK123 photolabeling with MS readout; EC50 from oocyte two-electrode voltage clamp (weak potentiation of GABA currents)", "type": "cell-based"}}}
{"molecule": "CC(=O)[C@H]1CC[C@H]2[C@@H]3CC[C@H]4C[C@H](O)CC[C@]4(C)[C@H]3CC[C@]12C", "note": "[ALLO, 3α-hydroxy-5α-pregnan-20-one]", "values": [{"measurement": "EC50", "setting": "[1]", "value": "0.08 ± 0.01", "unit": "µM"}]}
{"molecule": "C#CCCO[C@@H]1C[C@@]2(C)[C@@H]3CC[C@]4(C)[C@H](CC[C@H]4OC)[C@H]3CC3(N=N3)[C@@H]2C[C@H]1O", "note": "[KK152]", "values": [{"measurement": "photoaffinity labeling (30 μM) with middle-down MS identification of adducted re", "setting": "[2]", "value": "A fragmentation ion spectrum of this peptide identified Tyr415 as the site of KK152 adduction"}]}
{"molecule": "CC(=O)[C@@H]1CC[C@@H]2[C@H]3CC[C@@H]4C[C@@H](O)CC[C@@]4(C)[C@@H]3CC[C@]21C", "note": "[ent-ALLO, ent-allopregnanolone]", "values": [{"measurement": "EC50", "setting": "[3]", "value": "2 ± 0.3", "unit": "µM"}]}
